Assay results: patent US12570957B2, “Isolated naive pluripotent stem cells and methods of generating same” (Yeda Research and Development Co. Ltd., priority 2013, dated 2026)

How the values were obtained:
Assay in all cases: Pluripotency maintenance after supplementation of inhibitors or growth factors
naive mESCs = assay type: cell-based, mouse; conditions: mESCs in 2i/LIF
Procedure: (§1) Shown are histograms depicting colony formation of pluripotent cell lines in various media. Cell populations were equally divided and plated on gelatin/vitronectin coated plates in the indicated growth medium in which these cell lines are normally maintained (mouse naive cells in a medium containing 2i/LIF, naive hESCs/iPSCs in a WIS-NHSM medium, mouse EpiSCs and human primed ESCS/iPSCs in a KSR/bFGF/TGFβmedium). 36 hours later the wells were supplemented with the indicated inhibitors or growth factors. After 14 days (2 passages), wells were analyzed for Oct4-GFP pluripotency marker expression by FACS, to determine the relative percentage of pluripotent colonies. Pluripotent cell frequency was normalized to an internal control, as indicated by “Growth medium” only on the far left column (For naive cells growth medium was WIS-NHSM, and for primed cells was conventional KSR/bFGF/TGFβcontaining medium as specified in methods). […]
(§2) FIGS. 108A-108C—Signaling and functional characteristics of human naive pluripotency. […] After 14 days (2 passages), wells were analyzed by OCT4 immunostaining of direct detection of OCT4-GFP pluripotency reporter expression, to determine the relative percentage of undifferentiated pluripotent cells. […] After 20 days, colonies positive for OCT4 pluripotency markers were counted and normalized to colonies from cells electroporated with empty vector. […]

primed hESCs/hiPSCs = assay type: cell-based; conditions: primed human cells
Procedure: as §1, §2

naive hESCs/hiPSCs = assay type: cell-based; conditions: naive human cells in WIS-NHSM
Procedure: as §1, §2

CC(C)(C)c1nc2c3ccc(F)cc3c3c(=O)[nH]ccc3c2[nH]1 [JAKi]
response of pluripotent state (naive mESCs): readily differentiate
response of pluripotent state (primed hESCs/hiPSCs): resistant
response of pluripotent state (naive hESCs/hiPSCs): differentiated
